Measurements: ChEMBL document CHEMBL1201862, “PubChem BioAssay data set” (2004)
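The compound was tested at five concentrations on cells cultured in 96-well plates, with a 48-hour exposure period. At the GI50, growth is halved.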 Activity calls are given as the source filed them. Rule as the data show it: active = GI50 up to about 1.1 µM and inactive = higher.

What was measured:
Experiment in all cases: growth of human tumour cells (NCI), 48 h
[1] = system: A549
[2] = system: HCT-116
[3] = system: HCT-15
[4] = system: HL-60
[5] = system: HT-29
[6] = system: KM12
[7] = system: LOX IMVI
[8] = system: MDA-N
[9] = system: NCI-H226
[10] = system: NCI-H23
[11] = system: NCI-H522
[12] = system: NCI/ADR-RES
[13] = system: SF-268
[14] = system: SF-539
[15] = system: SK-MEL-2
[16] = system: SK-OV-3
[17] = system: SR
[18] = system: SW-620
[19] = system: TK-10
[20] = system: U-251

SMILES	GI50 [1]	GI50 [2]	GI50 [3] [µM]	GI50 [4]	GI50 [5]	GI50 [6]	GI50 [7]	GI50 [8]	GI50 [9]	GI50 [10]	GI50 [11]	GI50 [12]	GI50 [13]	GI50 [14]	GI50 [15]	GI50 [16]	GI50 [17]	GI50 [18]	GI50 [19]	GI50 [20]
COc1cccc(NC(=O)CC(=O)N2N=C(C)C(/N=N\c3ccc(S(=O)(=O)c4ccc(/N=N/C5C(=O)N(C(=O)CC(=O)Nc6cccc(OC)c6)N=C5C)cc4)cc3)C2=O)c1 (stereo not given)	> 100 µM (inactive)	> 100 µM (inactive)	> 100	> 100 µM (inactive)	> 100 µM (inactive)	> 100 µM (inactive)	> 100 µM (inactive)	> 100 µM (inactive)	> 100 µM (inactive)	> 100 µM (inactive)	> 100 µM (inactive)	> 100 µM (inactive)	> 100 µM (inactive)	> 100 µM (inactive)	> 100 µM (inactive)	> 100 µM (inactive)	> 100 µM (inactive)	> 100 µM (inactive)	> 100 µM (inactive)	> 100 µM (inactive)
Cc1ccc(C2=NN=C3C(c4ccccc4)=Nc4ccccc4N3C2)cc1	27.7 µM (inactive)	5.28 µM (inactive)	4.73	1.92 µM (inactive)	11.6 µM (inactive)	26.4 µM (inactive)	5.65 µM (inactive)	32.9 µM (inactive)	12.9 µM (inactive)	25.7 µM (inactive)	2.92 µM (inactive)	3.93 µM (inactive)	4.49 µM (inactive)	19.1 µM (inactive)	22.6 µM (inactive)	21 µM (inactive)	1.56 µM (inactive)	5.51 µM (inactive)	0.348 µM (active)	6.49 µM (inactive)
COc1cc(/C=C/C(=N\NS(=O)(=O)c2ccc(C)cc2)c2sc(NNC(C)=O)nc2C)ccc1O	> 100 µM (inactive)	> 100 µM (inactive)	> 100	> 100 µM (inactive)	> 100 µM (inactive)	> 100 µM (inactive)	> 100 µM (inactive)	> 100 µM (inactive)	> 100 µM (inactive)	> 100 µM (inactive)	> 100 µM (inactive)	> 100 µM (inactive)	> 100 µM (inactive)	> 100 µM (inactive)	> 100 µM (inactive)	> 100 µM (inactive)	> 100 µM (inactive)	> 100 µM (inactive)	> 100 µM (inactive)	> 100 µM (inactive)
Cc1nc2nn[nH]n2c(=O)c1CCO	> 100 µM (inactive)	> 100 µM (inactive)	> 100	> 100 µM (inactive)	> 100 µM (inactive)	> 100 µM (inactive)	> 100 µM (inactive)	> 100 µM (inactive)	> 100 µM (inactive)	> 100 µM (inactive)	> 100 µM (inactive)	> 100 µM (inactive)	> 100 µM (inactive)	> 100 µM (inactive)	> 100 µM (inactive)	> 100 µM (inactive)	> 100 µM (inactive)	> 100 µM (inactive)	> 100 µM (inactive)	> 100 µM (inactive)
CCCCCCCCCCCC(=O)NCc1ccc(OC(=O)CCCCCCCCCCC)c(OC)c1	> 100 µM (inactive)	65.2 µM (inactive)	> 100	6.07 µM (inactive)	37.8 µM (inactive)	24.3 µM (inactive)	5.42 µM (inactive)	61.4 µM (inactive)	> 100 µM (inactive)	32.8 µM (inactive)	2.63 µM (inactive)	> 100 µM (inactive)	> 54.1 µM (inactive)	3.56 µM (inactive)	> 82.8 µM (inactive)	> 100 µM (inactive)	11.1 µM (inactive)	> 100 µM (inactive)	> 100 µM (inactive)	> 100 µM (inactive)
NCCSS(=O)(=O)CCN	> 100 µM (inactive)	> 100 µM (inactive)	> 100	> 100 µM (inactive)	> 100 µM (inactive)	> 100 µM (inactive)	> 100 µM (inactive)	> 100 µM (inactive)	> 100 µM (inactive)	> 100 µM (inactive)	> 100 µM (inactive)	> 100 µM (inactive)	> 100 µM (inactive)	> 100 µM (inactive)	> 100 µM (inactive)	> 100 µM (inactive)	> 100 µM (inactive)	> 100 µM (inactive)	> 100 µM (inactive)	> 100 µM (inactive)
NC(C(=O)O)C(N)C(=O)O (stereo not given)	> 100 µM (inactive)	> 100 µM (inactive)	> 100	> 100 µM (inactive)	> 100 µM (inactive)	> 100 µM (inactive)	> 100 µM (inactive)	> 100 µM (inactive)	> 100 µM (inactive)	> 100 µM (inactive)	> 100 µM (inactive)	> 100 µM (inactive)	> 100 µM (inactive)	> 100 µM (inactive)	> 100 µM (inactive)	> 100 µM (inactive)	> 100 µM (inactive)	> 100 µM (inactive)	> 100 µM (inactive)	> 100 µM (inactive)
COc1cc(/C=C2\N=C(c3ccccc3)N(/N=C3\C(=O)Nc4ccccc43)C2=O)cc(OC)c1OC	> 100 µM (inactive)	> 100 µM (inactive)	> 100	94.4 µM (inactive)	> 100 µM (inactive)	> 100 µM (inactive)	90.8 µM (inactive)	42.3 µM (inactive)	41.7 µM (inactive)	86.1 µM (inactive)	27.8 µM (inactive)	> 100 µM (inactive)	66.4 µM (inactive)	> 100 µM (inactive)	> 100 µM (inactive)	> 100 µM (inactive)	38.6 µM (inactive)	> 100 µM (inactive)	> 100 µM (inactive)	> 100 µM (inactive)
O=C1Sc2cc3ccccc3cc2C(=O)Sc2cc3ccccc3cc21	81.7 µM (inactive)	17.4 µM (inactive)	22.8	7.87 µM (inactive)	28 µM (inactive)	33 µM (inactive)	19 µM (inactive)	29 µM (inactive)	> 100 µM (inactive)	43.3 µM (inactive)	7.45 µM (inactive)	29.1 µM (inactive)	26 µM (inactive)	31.9 µM (inactive)	23 µM (inactive)	> 100 µM (inactive)	0.454 µM (active)	30.3 µM (inactive)	55.2 µM (inactive)	29.6 µM (inactive)
CSC(=Nc1nnc(-c2ccc([N+](=O)[O-])cc2)s1)SC	46.8 µM (inactive)	27.4 µM (inactive)	> 95.5	> 100 µM (inactive)	> 100 µM (inactive)	> 94.8 µM (inactive)	31.9 µM (inactive)	> 72.9 µM (inactive)	33.7 µM (inactive)	27.8 µM (inactive)	15.5 µM (inactive)	33.5 µM (inactive)	16.7 µM (inactive)	18.1 µM (inactive)	26.7 µM (inactive)	27.6 µM (inactive)	> 100 µM (inactive)	> 100 µM (inactive)	16.6 µM (inactive)	21.4 µM (inactive)
O=C(CC(O)(C(F)(F)F)C(F)(F)Cl)CC(O)(C(F)(F)F)C(F)(F)Cl (stereo not given)	2.37 µM (inactive)	1.67 µM (inactive)	1.79	2.99 µM (inactive)	2.33 µM (inactive)	3.09 µM (inactive)	2.82 µM (inactive)	3.21 µM (inactive)	2.36 µM (inactive)	1.25 µM (inactive)	1.61 µM (inactive)	2.58 µM (inactive)	2.31 µM (inactive)	1.34 µM (inactive)	1.59 µM (inactive)	1.4 µM (inactive)	> 10 µM (inactive)	3.86 µM (inactive)	3.08 µM (inactive)	1.88 µM (inactive)
COc1ccc(C(=O)N(Cc2cccnc2)C(=S)N(Cc2cccnc2)C(=O)c2ccc(OC)cc2)cc1	> 100 µM (inactive)	> 100 µM (inactive)	> 100	> 100 µM (inactive)	> 100 µM (inactive)	70.8 µM (inactive)	> 100 µM (inactive)	> 100 µM (inactive)	> 100 µM (inactive)	> 100 µM (inactive)	72.1 µM (inactive)	75.2 µM (inactive)	52.1 µM (inactive)	> 100 µM (inactive)	> 100 µM (inactive)	67.3 µM (inactive)	> 100 µM (inactive)	> 100 µM (inactive)	> 100 µM (inactive)	55.2 µM (inactive)
COc1cc(C2C=C(c3ccccc3)Oc3cc4c(cc32)OCO4)cc(OC)c1OC (stereo not given)	0.2 µM (active)	0.311 µM (active)	0.324	0.521 µM (active)	0.324 µM (active)	0.38 µM (active)	0.569 µM (active)	0.249 µM (active)	0.376 µM (active)	0.436 µM (active)	0.327 µM (active)	0.312 µM (active)	3.17 µM (inactive)	0.265 µM (active)	1.91 µM (inactive)	0.191 µM (active)	0.333 µM (active)	0.406 µM (active)	> 36.2 µM (inactive)	0.449 µM (active)
O=c1[nH]c(=O)n(C2CC(O)C(CO)O2)cc1I (stereo not given)	> 73.1 µM (inactive)	> 100 µM (inactive)	> 100	> 81.3 µM (inactive)	> 100 µM (inactive)	> 100 µM (inactive)	> 87.1 µM (inactive)	> 100 µM (inactive)	> 100 µM (inactive)	> 100 µM (inactive)	> 100 µM (inactive)	> 100 µM (inactive)	> 100 µM (inactive)	> 100 µM (inactive)	> 100 µM (inactive)	> 100 µM (inactive)	38.7 µM (inactive)	> 100 µM (inactive)	> 100 µM (inactive)	> 100 µM (inactive)
